Values after ≈ are worked out from the molar mass of the structure shown. Where two headings read alike, the source gives them in different places.
Legend:
[1] = target: T1, acetylcholinesterase (AChE) (Electrophorus electricus, UniProt O42275); test: biochemical; conditions: for inhibition at 100 µg/mL: read-out: percentage inhibition of AChE, at 100 µg/mL
[2] = target: butyrylcholinesterase (BChE) (Equus caballus, UniProt P81908); test: biochemical; conditions: for inhibition at 100 µg/mL: read-out: percentage inhibition of BChE
Chain of butyrylcholinesterase (BChE) (P81908 whole entry): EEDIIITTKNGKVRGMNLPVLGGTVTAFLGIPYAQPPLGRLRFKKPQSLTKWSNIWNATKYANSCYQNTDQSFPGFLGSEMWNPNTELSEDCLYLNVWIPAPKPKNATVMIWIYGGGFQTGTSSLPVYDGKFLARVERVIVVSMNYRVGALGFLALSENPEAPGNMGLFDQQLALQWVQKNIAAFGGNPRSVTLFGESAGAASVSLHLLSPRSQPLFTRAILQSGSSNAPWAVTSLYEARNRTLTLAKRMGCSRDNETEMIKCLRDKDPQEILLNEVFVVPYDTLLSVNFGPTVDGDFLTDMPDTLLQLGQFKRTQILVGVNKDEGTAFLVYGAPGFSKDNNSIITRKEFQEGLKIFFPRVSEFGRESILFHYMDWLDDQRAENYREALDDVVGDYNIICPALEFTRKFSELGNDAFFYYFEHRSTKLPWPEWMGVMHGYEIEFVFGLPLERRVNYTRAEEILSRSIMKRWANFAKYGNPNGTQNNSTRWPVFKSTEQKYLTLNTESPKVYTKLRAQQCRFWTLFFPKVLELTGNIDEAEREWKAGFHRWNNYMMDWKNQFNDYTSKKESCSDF
Procedure: The anticholinesterase activity of the extracts and compounds was determined spectrophotometrically via the acetylcholinesterase (AChE) and butyrylcholinesterase (BChE) enzyme inhibition assay method described by Ellman with minor modifications [62, 63]. AChE and BChE from electric eel and horse serum, respectively, were used. The substrates of the reactions were acetylthiocholine iodide and butyrylthiocholine chloride. The activity of the cholinesterase was monitored using DTNB (5,5′-Dithio-bis(2-nitrobenzoic) acid). […] A Multiskan Go microplate reader spectrophotometer (Thermo Fischer Scientific, Waltham, MA, USA) was used to read optical densities.

α-amylase = target: T2, α-amylase (Sus scrofa, UniProt P00690); test: α-amylase inhibition (starch–iodine method); conditions: for inhibition at 100 µg/mL: read-out: percentage inhibition of α-amylase
T2 sequence (P00690 16-511): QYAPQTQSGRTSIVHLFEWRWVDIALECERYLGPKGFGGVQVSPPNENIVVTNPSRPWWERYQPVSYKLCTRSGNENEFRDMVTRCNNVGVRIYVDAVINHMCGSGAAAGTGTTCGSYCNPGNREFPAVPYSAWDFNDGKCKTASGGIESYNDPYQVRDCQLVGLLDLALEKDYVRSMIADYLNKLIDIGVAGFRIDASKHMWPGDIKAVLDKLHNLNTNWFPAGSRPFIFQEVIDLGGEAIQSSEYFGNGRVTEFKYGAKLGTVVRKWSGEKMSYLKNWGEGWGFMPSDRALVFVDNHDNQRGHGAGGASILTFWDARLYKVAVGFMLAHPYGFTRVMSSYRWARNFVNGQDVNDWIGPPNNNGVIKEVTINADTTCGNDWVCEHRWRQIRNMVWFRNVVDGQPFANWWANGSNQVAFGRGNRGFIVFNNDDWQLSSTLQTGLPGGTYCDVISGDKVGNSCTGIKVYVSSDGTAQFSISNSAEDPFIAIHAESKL
Procedure: The inhibition of α-amylase was determined using starch–iodine method with few modifications [64, 65]. Next, 50 µL of α-amylase from porcine pancreas in pH 6.9 phosphate buffer prepared with 6 mM NaCl and 25 µL of sample solutions was mixed in a 96-well microplate. The mixture was pre-incubated for 10 min at 37 °C. Next, 50 µL of starch solution (0.05%) was added and incubated for 10 min at 37 °C. Following incubation, the reaction was completed by adding HCl (0.1 M, 25 µL) and Lugol (100 µL) solutions, and the absorbance was recorded at 630 nm using a Multiskan Go microplate reader spectrophotometer (Thermo Fischer Scientific, Waltham, MA, USA).

α-glucosidase = α-glucosidase inhibitory activity (PNPG substrate); parameters: IC50 ± SEM (α-glucosidase): unit not given beside the values; conditions: for IC50 α-Glucosidase: mean ± SEM of three measurements, highest test concentration 100 µg/mL; for percentage inhibition of α-glucosidase: at 100 µg/mL; for IC50 ± SEM (α-glucosidase): Table 2 prints no unit, repeats Table 1 values
[3] = target: T1, acetylcholinesterase (AChE); conditions: read-out: IC50 ± SEM (Acetylcholinesterase); Table 2 prints no unit; repeats Table 1 values

T1 sequence (O42275 24-633): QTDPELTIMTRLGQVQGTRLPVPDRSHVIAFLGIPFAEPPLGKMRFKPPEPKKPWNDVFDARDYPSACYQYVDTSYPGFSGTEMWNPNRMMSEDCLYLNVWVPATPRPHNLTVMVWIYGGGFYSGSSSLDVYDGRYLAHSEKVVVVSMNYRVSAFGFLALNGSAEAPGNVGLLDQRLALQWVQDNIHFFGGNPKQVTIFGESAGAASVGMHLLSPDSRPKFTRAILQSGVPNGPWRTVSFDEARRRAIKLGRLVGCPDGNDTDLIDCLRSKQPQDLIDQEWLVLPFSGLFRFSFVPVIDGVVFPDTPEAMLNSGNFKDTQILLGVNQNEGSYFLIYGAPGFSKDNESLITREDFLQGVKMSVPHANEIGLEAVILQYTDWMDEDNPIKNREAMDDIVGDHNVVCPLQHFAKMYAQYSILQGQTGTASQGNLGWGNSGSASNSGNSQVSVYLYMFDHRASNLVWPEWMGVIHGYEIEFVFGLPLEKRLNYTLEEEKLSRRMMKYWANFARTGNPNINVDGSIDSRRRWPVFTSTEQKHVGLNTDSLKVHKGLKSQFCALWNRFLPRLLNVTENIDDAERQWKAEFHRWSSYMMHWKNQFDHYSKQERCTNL

SMILES: CC[C@H](/C=C/[C@@H](C)[C@H]1CC[C@H]2[C@@H]3CC=C4C[C@@H](O[C@@H]5O[C@H](CO)[C@@H](O)[C@H](O)[C@H]5O)CC[C@]4(C)[C@H]3CC[C@]12C)C(C)C [Stigmasterol glucoside, Stigmasterol 3-O-β-D-glucopyranoside]
- IC50 [1]: > 174 µM
- inhibition at 100 µg/mL [1]: 25.2 ± 0.94%
- IC50 [2]: > 174 µM
- IC50 (α-amylase): > 174 µM
- IC50 α-Glucosidase (α-glucosidase): >100 µg/mL

SMILES: C=C(C)[C@@H]1CC[C@]2(C)CC[C@]3(C)[C@H](CC[C@@H]4[C@@]5(C)CC[C@H](O)C(C)(C)[C@@H]5CC[C@]43C)[C@@H]12 [Lupeol]
- IC50 [1]: > 234 µM
- IC50 [2]: > 234 µM
- IC50 (α-amylase): > 234 µM
- percentage inhibition of α-glucosidase (α-glucosidase): 60.91 ± 0.76%
- IC50 α-Glucosidase (α-glucosidase): 69.75 ± 0.42 µg/mL (≈ 163 µM)

SMILES: CC[C@H](CC[C@@H](C)[C@H]1CC[C@H]2[C@@H]3CC=C4C[C@@H](O[C@@H]5O[C@H](CO)[C@@H](O)[C@H](O)[C@H]5O)CC[C@]4(C)[C@H]3CC[C@]12C)C(C)C [β-Sitosterol glucoside, 3β-O-D-glucopyranosyl-β-sitosterol]
- IC50 [1]: > 173 µM
- inhibition at 100 µg/mL [1]: 30.45 ± 0.23%
- IC50 [2]: > 173 µM
- IC50 (α-amylase): > 173 µM
- IC50 α-Glucosidase (α-glucosidase): >100 µg/mL

SMILES: CC1=CC2OC3OCC4(CCCC3(C)C24)C1CC(=O)c1ccoc1 (stereo not drawn) [Hypopurin E]
- IC50 [3]: > 304 µM
- IC50 [1]: > 304 µM
- inhibition at 100 µg/mL [1]: 20.4 ± 0.56%
- IC50 [2]: 265 µM
- inhibition at 100 µg/mL [2]: 52.8 ± 1.07%
- IC50 (α-amylase): 225 µM
- inhibition at 100 µg/mL (α-amylase): 53.9 ± 0.52%
- IC50 ± SEM (α-glucosidase) (α-glucosidase): 76.33 ± 1.10
- percentage inhibition of α-glucosidase (α-glucosidase): 54.79 ± 0.85%
- IC50 α-Glucosidase (α-glucosidase): 76.33 ± 1.10 µg/mL (≈ 232 µM)

SMILES: C[C@H]1O[C@H](O[C@H]2[C@H](O)[C@@H](O)[C@@H](O[C@H]3[C@H](O)[C@@H](O)C(O)O[C@@H]3CO)O[C@@H]2CO)[C@H](O)[C@@H](O)[C@@H]1N[C@H]1C=C(CO)[C@@H](O)[C@H](O)[C@H]1O (stereo partly drawn) [Acarbose, acarbose, reference compound]
- inhibition at 100 µg/mL (α-amylase): 75.84 ± 0.52%
- percentage inhibition of α-glucosidase (α-glucosidase): 51.35 ± 0.65%

SMILES: CC1=C[C@H]2OC(=O)[C@@]3(C)CCC[C@@](C)([C@@H]23)[C@H]1CC(=O)c1ccoc1 [Hypopurin A]
- IC50 [3]: > 304 µM
- IC50 [1]: > 304 µM
- inhibition at 100 µg/mL [1]: 40.2 ± 0.75%
- IC50 [2]: 177 µM
- inhibition at 100 µg/mL [2]: 64.8 ± 0.93%
- IC50 (α-amylase): 185 µM
- inhibition at 100 µg/mL (α-amylase): 65.8 ± 0.84%
- IC50 ± SEM (α-glucosidase) (α-glucosidase): 99.25 ± 0.96
- percentage inhibition of α-glucosidase (α-glucosidase): 50.13 ± 0.81%
- IC50 α-Glucosidase (α-glucosidase): 99.25 ± 0.96 µg/mL (≈ 302 µM)

SMILES: COc1ccc2c3c1O[C@H]1C[C@@H](O)C=C[C@@]31CCN(C)C2 [Galantamine, galantamine, reference compound]
- inhibition at 100 µg/mL [2]: 73.85 ± 0.3%

SMILES: CC1=C[C@H]2OC3OC(=O)[C@@]4(C)CCC[C@@]3([C@@H]24)[C@H]1CC(=O)c1ccoc1 [Hypopurin B]
- IC50 [3]: > 292 µM
- IC50 [1]: > 292 µM
- inhibition at 100 µg/mL [1]: 24.8 ± 0.33%
- IC50 [2]: 196 µM
- inhibition at 100 µg/mL [2]: 61.8 ± 1.15%
- IC50 (α-amylase): 203 µM
- inhibition at 100 µg/mL (α-amylase): 56.68 ± 0.24%
- IC50 ± SEM (α-glucosidase) (α-glucosidase): 71.41 ± 0.98
- percentage inhibition of α-glucosidase (α-glucosidase): 51.95 ± 0.63%
- IC50 α-Glucosidase (α-glucosidase): 71.41 ± 0.98 µg/mL (≈ 209 µM)
